Source: patent US12410171B2, “Tropomyosin receptor kinase (TRK) degradation compounds and methods of use” (Cullgen (Shanghai), Inc., priority 2020, dated 2025)
Read-outs that look alike come from different tables or passages of the source.

Test system: KM12 cells
Test: KM12 cell viability (CellTiter-Glo)
Format: cell-based
Details: Homo sapiens, 72 h, KM12 cell viability, CellTiter-Glo, read-out: IC50
Method: KM12 or H358 cells were treated with 1000 nM CPD-053 following an 8-point 3-fold serial dilution for 3 days.
KM12 cells seeded in 96-well plates were treated with heterobifunctional compounds following a 11-point 3-fold serial dilution for 3 days.
KM12, H358, HEL, SU-DHL-1 and other cells were cultured at 37° C. with 5% CO2 in RPMI 1640 Medium supplemented with 10% fetal bovine serum. Cells were authenticated using the short tandem repeat (STR) assays. Mycoplasma test results were negative. Stable cell lines were established by lentivirus transduction, selected and maintained in medium containing 1 μg/mL puromycin (Beyotime Biotechnology).
Cells were seeded at a density of 5000 cells per well in 96-well assay plates and treated with test compounds following a 12-point 2-fold serial dilution or a 8-point 3-fold dilution, or 11-point 3-fold serial dilution. Three days later, cell viability was determined using the CellTiter-Glo assay kit (Promega) according to the manufacturer's instructions. The dose-response curves were determined and IC50 values were calculated using the GraphPad Prism software following a nonlinear regression (least squares fit) method.

[1] = 11-point 3-fold serial dilution, 3 days

Structure (SMILES): Cc1ncsc1-c1ccc(CNC(=O)[C@@H]2C[C@@H](O)CN2C(=O)[C@@H](NC(=O)CCOCCOCCOCCOCCC(=O)N2CCN(Cc3ccc(NC(=O)c4coc(N5CCOCC5)n4)c(N4CCC(C(N)=O)CC4)c3)CC2)C(C)(C)C)cc1 [CPD-497, N-(2-(4-carbamoylpiperidin-1-yl)-4-((4-((S)-18-((2S,4R)-4-hydroxy-2-((4-(4-methylthiazol-5-yl)benzyl)carbamooyl)pyrrolidine-1-carbonyl)-19,19-dimethyl-16-oxo-4,7,10,13-tetraoxa-17-azaicosanoyl)piperazin-1-yl)methyl)phenyl)-2-morpholinooxazole-4-carboxamide]
- IC50 [1]: > 10 µM

Structure (SMILES): COc1ccc(COc2ccc(Cn3c(N)nc4cc(-c5cnn(CC(=O)NCCOCCNc6cccc7c6C(=O)N(C6CCC(=O)NC6=O)C7=O)c5)cnc43)cc2OC)cc1 (centres unmarked) [CPD-502, 2-(4-(2-amino-3-(3-methoxy-4-((4-methoxybenzyl)oxy)benzyl)-3H-imidazo[4,5-b]pyridin-6-yl)-1H-pyrazol-1-yl)-N-(2-(2-((2-(2,6-dioxopiperidin-3-yl)-1,3-dioxoisoindolin-4-yl)amino)ethoxy)ethyl)acetamide]
- IC50 [1]: 0.682 µM

Structure (SMILES): COc1ccc(COc2ccc(Cn3c(N)nc4cc(-c5cnn(CC(=O)NCCOCCOCCNc6cccc7c6C(=O)N(C6CCC(=O)NC6=O)C7=O)c5)cnc43)cc2OC)cc1 (centres unmarked) [CPD-503, 2-(4-(2-amino-3-(3-methoxy-4-((4-methoxybenzyl)oxy)benzyl)-3H-imidazo[4,5-b]pyridin-6-yl)-1H-pyrazol-1-yl)-N-(2-(2-(2-((2-(2,6-dioxopiperidin-3-yl)-1,3-dioxoisoindolin-4-yl)amino)ethoxy)ethoxy)ethyl)acetamide]
- IC50 [1]: 0.504 µM

Structure (SMILES): COc1ccc(COc2ccc(Cn3c(N)nc4cc(-c5cnn(CC(=O)NCCOCCOCCOCCNc6cccc7c6C(=O)N(C6CCC(=O)NC6=O)C7=O)c5)cnc43)cc2OC)cc1 (centres unmarked) [CPD-504, 2-(4-(2-amino-3-(3-methoxy-4-((4-methoxybenzyl)oxy)benzyl)-3H-imidazo[4,5-b]pyridin-6-yl)-1H-pyrazol-1-yl)-N-(2-(2-(2-(2-((2-(2,6-dioxopiperidin-3-yl)-1,3-dioxoisoindolin-4-yl)amino)ethoxy)ethoxy)ethoxy)ethyl)acetamide]
- IC50 [1]: 0.334 µM

Structure (SMILES): COc1ccc(COc2ccc(Cn3c(N)nc4cc(-c5cnn(CC(=O)NCCOCCOCCOCCOCCNc6cccc7c6C(=O)N(C6CCC(=O)NC6=O)C7=O)c5)cnc43)cc2OC)cc1 (centres unmarked) [CPD-505, 2-(4-(2-amino-3-(3-methoxy-4-((4-methoxybenzyl)oxy)benzyl)-3H-imidazo[4,5-b]pyridin-6-yl)-1H-pyrazol-1-yl)-N-(14-((2-(2,6-dioxopiperidin-3-yl)-1,3-dioxoisoindolin-4-yl)amino)-3,6,9,12-tetraoxatetradecyl)acetamide]
- IC50 [1]: 0.195 µM

Structure (SMILES): COc1ccc(COc2ccc(Cn3c(N)nc4cc(-c5cnn(CC(=O)NCCOCCOCCOCCOCCOCCNc6cccc7c6C(=O)N(C6CCC(=O)NC6=O)C7=O)c5)cnc43)cc2OC)cc1 (centres unmarked) [CPD-506, 2-(4-(2-amino-3-(3-methoxy-4-((4-methoxybenzyl)oxy)benzyl)-3H-imidazo[4,5-b]pyridin-6-yl)-1H-pyrazol-1-yl)-N-(17-((2-(2,6-dioxopiperidin-3-yl)-1,3-dioxoisoindolin-4-yl)amino)-3,6,9,12,15-pentaoxaheptadecyl)acetamide]
- IC50 [1]: 0.204 µM

Structure (SMILES): COc1ccc(COc2ccc(Cn3c(N)nc4cc(-c5cnn(CC(=O)NCC(=O)N[C@H](C(=O)N6C[C@H](O)C[C@H]6C(=O)NCc6ccc(-c7scnc7C)cc6)C(C)(C)C)c5)cnc43)cc2OC)cc1 [CPD-507]
- IC50 [1]: 1.52 µM

Structure (SMILES): COc1ccc(COc2ccc(Cn3c(N)nc4cc(-c5cnn(CC(=O)NCCCC(=O)N[C@H](C(=O)N6C[C@H](O)C[C@H]6C(=O)NCc6ccc(-c7scnc7C)cc6)C(C)(C)C)c5)cnc43)cc2OC)cc1 [CPD-508, (2S,4R)-1-((S)-2-(4-(2-(4-(2-amino-3-(3-methoxy-4-((4-methoxybenzyl)oxy)benzyl)-3H-imidazo[4,5-b]pyridin-6-yl)-1H-pyrazol-1-yl)acetamido)butanamido)-3,3-dimethylbutanoyl)-4-hydroxy-N-(4-(4-methylthiazol-5-yl)benzyl)pyrrolidine-2-carboxamide]
- IC50 [1]: 2.1 µM

Structure (SMILES): COc1ccc(COc2ccc(Cn3c(N)nc4cc(-c5cnn(CC(=O)NCCCCCC(=O)N[C@H](C(=O)N6C[C@H](O)C[C@H]6C(=O)NCc6ccc(-c7scnc7C)cc6)C(C)(C)C)c5)cnc43)cc2OC)cc1 [CPD-509, (2S,4R)-1-((S)-2-(6-(2-(4-(2-amino-3-(3-methoxy-4-((4-methoxybenzyl)oxy)benzyl)-3H-imidazo[4,5-b]pyridin-6-yl)-1H-pyrazol-1-yl)acetamido)hexanamido)-3,3-dimethylbutanoyl)-4-hydroxy-N-(4-(4-methylthiazol-5-yl)benzyl)pyrrolidine-2-carboxamide]
- IC50 [1]: 0.0531 µM

Structure (SMILES): COc1ccc(COc2ccc(Cn3c(N)nc4cc(-c5cnn(CC(=O)NCCOCCC(=O)N[C@H](C(=O)N6C[C@H](O)C[C@H]6C(=O)NCc6ccc(-c7scnc7C)cc6)C(C)(C)C)c5)cnc43)cc2OC)cc1 [CPD-512, (2S,4R)-1-((S)-2-(3-(2-(2-(4-(2-amino-3-(3-methoxy-4-((4-methoxybenzyl)oxy)benzyl)-3H-imidazo[4,5-b]pyridin-6-yl)-1H-pyrazol-1-yl)acetamido)ethoxy)propanamido)-3,3-dimethylbutanoyl)-4-hydroxy-N-(4-(4-methylthiazol-5-yl)benzyl)pyrrolidine-2-carboxamide]
- IC50 [1]: 0.307 µM

Structure (SMILES): COc1ccc(COc2ccc(Cn3c(N)nc4cc(-c5cnn(CC(=O)NCCOCCOCCC(=O)N[C@H](C(=O)N6C[C@H](O)C[C@H]6C(=O)NCc6ccc(-c7scnc7C)cc6)C(C)(C)C)c5)cnc43)cc2OC)cc1 [CPD-513, (2S,4R)-1-((S)-1-(4-(2-amino-3-(3-methoxy-4-((4-methoxybenzyl)oxy)benzyl)-3H-imidazo[4,5-b]pyridin-6-yl)-1H-pyrazol-1-yl)-14-(tert-butyl)-2,12-dioxo-6,9-dioxa-3,13-diazapentadecan-15-oyl)-4-hydroxy-N-(4-(4-methylthiazol-5-yl)benzyl)pyrrolidine-2-carboxamide]
- IC50 [1]: 0.261 µM

Structure (SMILES): COc1ccc(COc2ccc(Cn3c(N)nc4cc(-c5cnn(CC(=O)NCCOCCOCCOCCC(=O)N[C@H](C(=O)N6C[C@H](O)C[C@H]6C(=O)NCc6ccc(-c7scnc7C)cc6)C(C)(C)C)c5)cnc43)cc2OC)cc1 [CPD-514, (2S,4R)-1-((S)-1-(4-(2-amino-3-(3-methoxy-4-((4-methoxybenzyl)oxy)benzyl)-3H-imidazo[4,5-b]pyridin-6-yl)-1H-pyrazol-1-yl)-17-(tert-butyl)-2,15-dioxo-6,9,12-trioxa-3,16-diazaoctadecan-18-oyl)-4-hydroxy-N-(4-(4-methylthiazol-5-yl)benzyl)pyrrolidine-2-carboxamide]
- IC50 [1]: 0.174 µM

Structure (SMILES): COc1ccc(COc2ccc(Cn3c(N)nc4cc(-c5cnn(CC(=O)NCCOCCOCCOCCOCCC(=O)N[C@H](C(=O)N6C[C@H](O)C[C@H]6C(=O)NCc6ccc(-c7scnc7C)cc6)C(C)(C)C)c5)cnc43)cc2OC)cc1 [CPD-515, (2S,4R)-1-((S)-1-(4-(2-amino-3-(3-methoxy-4-((4-methoxybenzyl)oxy)benzyl)-3H-imidazo[4,5-b]pyridin-6-yl)-1H-pyrazol-1-yl)-20-(tert-butyl)-2,18-dioxo-6,9,12,15-tetraoxa-3,19-diazahenicosan-21-oyl)-4-hydroxy-N-(4-(4-methylthiazol-5-yl)benzyl)pyrrolidine-2-carboxamide]
- IC50 [1]: 0.343 µM

Structure (SMILES): COc1ccc(COc2ccc(Cn3c(N)nc4cc(-c5cnn(CC(=O)NCCOCCOCCOCCOCCOCCC(=O)N[C@H](C(=O)N6C[C@H](O)C[C@H]6C(=O)NCc6ccc(-c7scnc7C)cc6)C(C)(C)C)c5)cnc43)cc2OC)cc1 [CPD-516, (2S,4R)-1-((S)-1-(4-(2-amino-3-(3-methoxy-4-((4-methoxybenzyl)oxy)benzyl)-3H-imidazo[4,5-b]pyridin-6-yl)-1H-pyrazol-1-yl)-23-(tert-butyl)-2,21-dioxo-6,9,12,15,18-pentaoxa-3,22-diazatetracosan-24-oyl)-4-hydroxy-N-(4-(4-methylthiazol-5-yl)benzyl)pyrrolidine-2-carboxamide]
- IC50 [1]: 0.473 µM

Structure (SMILES): O=C1CCC(N2Cc3cc(OCCN4CCN(c5cccc(-c6cnc7ccc(N8CCC[C@@H]8c8cccc(F)c8)nn67)n5)CC4)ccc3C2=O)C(=O)N1 (stereo partly drawn) [TR-200, 3-(5-(2-(4-(6-(6-((R)-2-(3-fluorophenyl)pyrrolidin-1-yl)imidazo[1,2-b]pyridazin-3-yl)pyridin-2-yl)piperazin-1-yl)ethoxy)-1-oxoisoindolin-2-yl)piperidine-2,6-dione]
- IC50 (three days treatment): 0.101 µM

Structure (SMILES): O=C1CCC(N2Cc3ccc(OCCN4CCN(c5cccc(-c6cnc7ccc(N8CCC[C@@H]8c8cccc(F)c8)nn67)n5)CC4)cc3C2=O)C(=O)N1 (stereo partly drawn) [TR-201, 3-(6-(2-(4-(6-(6-((R)-2-(3-fluorophenyl)pyrrolidin-1-yl)imidazo[1,2-b]pyridazin-3-yl)pyridin-2-yl)piperazin-1-yl)ethoxy)-1-oxoisoindolin-2-yl)piperidine-2,6-dione]
- IC50 (three days treatment): > 0.5 µM

Structure (SMILES): O=C1CCC(N2C(=O)c3ccc(N4CC(CN5CCC(n6ccc(-c7cnc8ccc(N9CCC[C@@H]9c9cccc(F)c9)nn78)c6)CC5)C4)cc3C2=O)C(=O)N1 (stereo partly drawn) [TR-222, 2-(2,6-Dioxopiperidin-3-yl)-5-(3-((4-(3-(6-((R)-2-(3-fluorophenyl)pyrrolidin-1-yl)imidazo[1,2-b]pyridazin-3-yl)-1H-pyrrol-1-yl)piperidin-1-yl)methyl)azetidin-1-yl)isoindoline-1,3-dione]
- IC50 (three days treatment): > 0.5 µM
